Here are results for 1 compound from patent US7659081B2, “Determination of AM-binding proteins and the association of adrenomedullin (AM) therewith” (The United States of America as represented by the …, priority 1999, dated 2010).

The subject of experiment [1] is E. coli cells (ATCC 35218). In kind it is cell-based. On the procedure: FIG. 9 illustrates the effect of factor H on AM activity. […] Values represent mean and standard deviation of four independent determinations. […] Results are expressed in inhibition units (10 units correspond to 1 mm of diameter in the inhibition halo). MIC values were estimated by performing a linear regression and determining the x-intercepts. […] Values represent mean and standard deviation of the mean of eight determinations.
Antimicrobial activity was measured using E. coli cells (ATCC 35218, Gaithersburg, Md.) and a radial diffusion assay as previously described (R. I. Lehrer et al., 1991, J. Immunol. Methods 137:167-173). Briefly, bacteria were incorporated into a thin underlay gel that contained 1% agarose, 2 mM HEPES pH 7.2, and 0.3 mg/ml of trypticase soy broth powder. After polymerization of the gel, small wells (10 μl capacity) were carved in the agar. Test substances were added and allowed to diffuse for 3 hr at 37° C. […] The diameters of the inhibition halos were measured to the nearest 0.1 mm and, after subtracting the diameter of the well, were expressed on inhibition units (10 units=1 mm). […]
For statistical calculations, MIC values were analyzed by the Student's t test, cAMP values were analyzed with a one-way analysis of variance (ANOVA) and the Tukey's test, and P<0.05 was considered significant.

For the next experiment, the system named is AM-binding protein. The experiment can be described thus: Competitive displacement of 125I-AM on radioligand blot strips. The note with it: increasing concentrations, 10^−10 to 10^−6 M. As for the experimental part:
Further detection and characterization of AM-BPs were performed using radioligand blotting procedures similar to those described for IGF binding proteins in plasma (P. Hossenlopp et al., 1986, Anal. Biochem. 154:138-146). Briefly, plasma or serum from the ten species was diluted 1:5 with water and further mixed 1:2 with SDS Tris-glycineglycerol loading buffer and incubated for 10 min at 70° C. Plasma or serum volumes equivalent to 1.5 μl were loaded onto 10% acrylamide gels under non-reducing conditions. Proteins were separated at 115 v for 0.5 hr and transferred to 0.2 μm nitrocellulose using a semi-moist transfer (Bio-Rad Hercules, Calif.) at 18 v for 42 min. Molecular weight markers (29 kD, 43 kD, 66 kD, 78 kD, and 116 kD) were added to complementary lanes on each gel to assess the relative sizes of the resolved proteins.
Nitrocellulose blots were incubated for 15 min with 1.5% NP-40 (Sigma, St. Louis, Mo.). Nonspecific binding was further blocked with a 4 hr incubation of the nitrocellulose in phosphate buffered saline containing either 1% BSA (RIA Grade, SIGMA, St. Louis, Mo.) or 1% AHC. Incubations with radiolabeled recombinant human ^125I-AM were performed overnight at room temperature with agitation, with 80,000 CPM ^125I-hAM per 5 ml protein blocking matrix. […]
For orientation: Loss of bound radioactivity is the signal in a displacement assay; it reports binding, not function.

For another experiment, the system named is insulin secretion. The note with it: cited from earlier work.

≈ marks a conversion by molar mass, not a printed value.

As for `CC[C@H](C)[C@H](NC(=O)[C@H](CCC(N)=O)NC(=O)[C@H](Cc1c[nH]cn1)NC(=O)[C@H](C)NC(=O)[C@H](CC(C)C)NC(=O)[C@H](CCCCN)NC(=O)[C@H](CCC(N)=O)NC(=O)[C@@H](NC(=O)[C@@H](NC(=O)[C@@H]1CSSC[C@H](NC(=O)CNC(=O)[C@H](Cc2ccccc2)NC(=O)[C@H](CO)NC(=O)[C@H](CCCNC(=N)N)NC(=O)[C@H](CC(C)C)NC(=O)CNC(=O)[C@H](CCC(N)=O)NC(=O)[C@H](Cc2ccccc2)NC(=O)[C@H](CC(N)=O)NC(=O)[C@H](CC(N)=O)NC(=O)[C@H](CCSC)NC(=O)[C@H](CO)NC(=O)[C@H](CCC(N)=O)NC(=O)[C@H](CCCNC(=N)N)NC(=O)[C@@H](N)Cc2ccc(O)cc2)C(=O)N[C@@H](CCCNC(=N)N)C(=O)N[C@@H](Cc2ccccc2)C(=O)NCC(=O)N[C@@H]([C@@H](C)O)C(=O)N1)[C@@H](C)O)C(C)C)C(=O)N[C@@H](Cc1ccc(O)cc1)C(=O)N[C@@H](CCC(N)=O)C(=O)N[C@@H](Cc1ccccc1)C(=O)N[C@H](C(=O)N[C@@H](CC(=O)O)C(=O)N[C@@H](CCCCN)C(=O)N[C@@H](CC(=O)O)C(=O)N[C@@H](CCCCN)C(=O)N[C@@H](CC(=O)O)C(=O)N[C@@H](CC(N)=O)C(=O)N[C@H](C(=O)N[C@@H](C)C(=O)N1CCC[C@H]1C(=O)N[C@@H](CCCNC(=N)N)C(=O)N[C@@H](CO)C(=O)N[C@@H](CCCCN)C(=O)N[C@H](C(=O)N[C@@H](CO)C(=O)N1CCC[C@H]1C(=O)N[C@@H](CCC(N)=O)C(=O)NCC(=O)N[C@@H](Cc1ccc(O)cc1)C(N)=O)[C@@H](C)CC)C(C)C)[C@@H](C)O` [AM, Adrenomedullin], the MIC value in experiment [1] is 18.4 ± 1.3 µg/mL (≈ 3.05 µM). In the experiment with AM-binding protein, the “Displacement of 125I-AM from AMBPs” value is “linear competitive displacement”. The Insulin secretion entry in the experiment on insulin secretion is recorded as “inhibits insulin secretion in a dose-dependent manner”.
